From the supplement of paper PMC10307832

What was measured:
Experiment in all cases: relative viability (nuclei count vs DMSO), 5 days (fraction); higher = more cells survive
[1] = compound: Cc1ccc2nc(NCCN)c3ncc(C)n3c2c1 + CS(=O)(=O)CCNCc1ccc(-c2ccc3ncnc(Nc4ccc(OCc5cccc(F)c5)c(Cl)c4)c3c2)o1 [Lapatinib] (partner 2 µM)
Procedure, shortened: (§1)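 Lung cancer cell lines in 1536-well plates were dosed by pin tool the day after seeding, either with one drug alone or with a fixed anchor-drug dose plus five library-drug doses (not always all listed) in √10 steps. After 5 days, cells were fixed and their nuclei stained in one step (final 0.05% Triton X-100, 1% formaldehyde, 1 ug/ml Hoechst), then counted on 4× images. Relative viability is the nuclei count in treated wells divided by that in vehicle wells. Values are medians of duplicate plates.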

[2] = compound: Cc1ccc2nc(NCCN)c3ncc(C)n3c2c1 + O=C(c1cc(Cc2n[nH]c(=O)c3ccccc23)ccc1F)N1CCN(C(=O)C2CC2)CC1 [Olaparib] (partner 8 µM)
Procedure, shortened: as §1

Salubrinal + Tozasertib = compound: O=C(/C=C/c1ccccc1)NC(NC(=S)Nc1cccc2cccnc12)C(Cl)(Cl)Cl [Salubrinal] + Cc1cc(Nc2cc(N3CCN(C)CC3)nc(Sc3ccc(NC(=O)C4CC4)cc3)n2)n[nH]1 [Tozasertib] (partner 0.1 µM)
Procedure, shortened: as §1

Salubrinal + Decitabine = compound: O=C(/C=C/c1ccccc1)NC(NC(=S)Nc1cccc2cccnc12)C(Cl)(Cl)Cl [Salubrinal] + Nc1ncn([C@H]2C[C@H](O)[C@@H](CO)O2)c(=O)n1 [Decitabine] (partner 2 µM)
Procedure, shortened: as §1

Cell Line	relative viability ([1]; first compound 0.04 µM)	relative viability ([1]; first compound 0.1265 µM)	relative viability ([1]; first compound 0.4 µM)	relative viability ([1]; first compound 1.265 µM)	relative viability ([1]; first compound 4 µM)	relative viability ([2]; first compound 0.04 µM)	relative viability ([2]; first compound 0.1265 µM)	relative viability ([2]; first compound 0.4 µM)	relative viability ([2]; first compound 1.265 µM)	relative viability ([2]; first compound 4 µM)	relative viability (Salubrinal + Tozasertib; first compound 0.08 µM)	relative viability (Salubrinal + Tozasertib; first compound 0.253 µM)	relative viability (Salubrinal + Tozasertib; first compound 0.8 µM)	relative viability (Salubrinal + Tozasertib; first compound 2.53 µM)	relative viability (Salubrinal + Tozasertib; first compound 8 µM)	relative viability (Salubrinal + Decitabine; first compound 0.08 µM)	relative viability (Salubrinal + Decitabine; first compound 0.253 µM)	relative viability (Salubrinal + Decitabine; first compound 0.8 µM)	relative viability (Salubrinal + Decitabine; first compound 2.53 µM)	relative viability (Salubrinal + Decitabine; first compound 8 µM)
NCI-H2085	0.91	0.771	0.728	0.785	0.817	0.813	0.752	0.836	0.803	0.791	0.96	0.776	0.854	0.588	0.77	0.521	0.583	0.564	0.508	0.643
NCI-H2087	1.25	1.14	1.16	1.08	1.07	0.671	0.522	0.609	0.691	0.589	0.299	0.212	0.295	0.229	0.195	0.448	0.266	0.295	0.277	0.257
NCI-H2126	0.793	0.783	0.765	0.791	0.593	0.924	0.903	0.943	0.932	0.888	0.979	0.801	0.968	0.827	0.666	0.605	0.547	0.589	0.563	0.559
NCI-H2170	0.307	0.263	0.249	0.302	0.26	0.627	0.702	0.56	0.549	0.637	1.02	0.778	0.783	0.77	0.665	0.483	0.452	0.496	0.472	0.461
NCI-H2347	0.99	0.99	0.908	0.987	0.87	0.601	0.566	0.485	0.525	0.501	0.619	0.543	0.617	0.51	0.568	0.598	0.571	0.663	0.649	0.661
NCI-H2405	1.06	1.06	1.06	1.08	0.835	0.91	0.795	0.927	0.825	0.779	0.722	0.748	0.801	0.713	0.696	0.726	0.726	0.754	0.757	0.729
NCI-H3122	1.06	0.994	0.997	1.12	1	0.653	0.67	0.507	0.582	0.579	0.416	0.387	0.591	0.387	0.428	0.399	0.443	0.51	0.461	0.442
PC-3 [JPC-3]	0.475	0.45	0.42	0.448	0.424	1.23	1.09	1.13	1.11	1.02	1.12	0.649	0.857	0.896	0.831	0.848	0.836	0.891	0.848	0.81
PC-14	0.398	0.307	0.41	0.289	0.295	0.278	0.324	0.241	0.261	0.127	0.629	0.663	0.638	0.525	0.601	0.211	0.228	0.201	0.189	0.236
RERF-LC-KJ	0.834	0.925	0.911	0.809	0.84	0.995	0.919	1.06	0.801	0.579	0.584	0.433	0.513	0.435	0.285	0.834	0.605	0.792	0.697	0.598
SK-LU-1	1.06	0.951	0.889	0.948	0.852	0.515	0.422	0.513	0.455	0.484	0.334	0.326	0.344	0.287	0.286	0.609	0.597	0.739	0.685	0.506
SK-MES-1	0.503	0.512	0.493	0.447	0.472	0.716	0.736	0.745	0.669	0.468	1.01	0.816	1.04	0.895	0.694	0.405	0.359	0.365	0.356	0.495
SW 1573	1.07	1.1	1.19	1.42	0.954	0.519	0.404	0.504	0.42	0.177	0.176	0.172	0.155	0.194	0.151	0.697	0.372	0.609	0.488	0.555
